Assay results from patent US6770782B1, “Process for the production of potassium hydroxy citric acid, and compositions containing the potassium hydroxy citric acid” (Sabinsa Corporation, priority 1995, dated 2004).
pKi: −log10 of the molar value. “Also recorded” adds a separate entry of the source.

Columns and labels:
[1] = solubility (product specification); type: physicochemical
[2] = stability of the product in solid state and in aqueous solution; type: physicochemical
Description: The stability of the product was evaluated in solid state and in aqueous solution in temperature and humidity conditions as specified below. The following parameters of the product were considered: physical appearance, specific rotation, HCA content by HPLC, lactone content by HPLC. […]
b) 37°±2° C. and 75%±2 relative humidity c) 45°±2° C. and 75%±2 relative humidity
2. In solution form (5% in water)

[3] = system: gluconeogenesis in rat liver; details: HCA-treated rats; cited from earlier work
[4] = rats, cited from earlier work
[5] = in vivo; cited from earlier work
citrate lyase = target: T1, citrate lyase (Homo sapiens, UniProt P53396); details: cited from earlier work
T1 sequence (P53396 1-1101): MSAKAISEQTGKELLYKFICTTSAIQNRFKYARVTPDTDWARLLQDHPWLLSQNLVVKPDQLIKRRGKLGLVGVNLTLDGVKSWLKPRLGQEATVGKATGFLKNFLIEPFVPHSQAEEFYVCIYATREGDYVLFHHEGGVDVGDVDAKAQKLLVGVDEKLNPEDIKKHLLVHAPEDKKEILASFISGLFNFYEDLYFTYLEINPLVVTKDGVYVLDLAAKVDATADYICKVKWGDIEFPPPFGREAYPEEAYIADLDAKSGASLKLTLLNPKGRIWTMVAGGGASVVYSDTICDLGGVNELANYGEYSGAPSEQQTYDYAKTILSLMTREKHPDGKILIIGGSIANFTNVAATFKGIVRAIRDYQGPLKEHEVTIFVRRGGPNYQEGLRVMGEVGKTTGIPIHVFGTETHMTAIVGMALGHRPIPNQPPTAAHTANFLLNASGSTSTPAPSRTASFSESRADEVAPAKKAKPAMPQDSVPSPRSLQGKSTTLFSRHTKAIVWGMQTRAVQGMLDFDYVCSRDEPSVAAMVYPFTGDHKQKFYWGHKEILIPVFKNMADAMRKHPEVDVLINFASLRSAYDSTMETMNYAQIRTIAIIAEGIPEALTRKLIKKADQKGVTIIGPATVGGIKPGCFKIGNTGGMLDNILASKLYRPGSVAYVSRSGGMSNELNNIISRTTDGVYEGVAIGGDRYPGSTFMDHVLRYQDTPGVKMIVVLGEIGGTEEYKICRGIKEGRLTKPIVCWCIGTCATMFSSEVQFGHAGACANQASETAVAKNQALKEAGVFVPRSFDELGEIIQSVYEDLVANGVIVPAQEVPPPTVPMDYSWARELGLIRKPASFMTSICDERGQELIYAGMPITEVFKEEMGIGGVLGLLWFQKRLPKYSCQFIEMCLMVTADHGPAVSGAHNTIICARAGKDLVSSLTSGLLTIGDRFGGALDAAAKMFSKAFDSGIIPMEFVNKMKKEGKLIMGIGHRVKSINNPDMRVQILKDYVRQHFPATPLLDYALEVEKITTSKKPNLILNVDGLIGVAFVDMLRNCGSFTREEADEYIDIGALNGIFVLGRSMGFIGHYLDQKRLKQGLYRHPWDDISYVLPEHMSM

[6] = free acid converts to lactone; cited from earlier work

Molecule	Solubility ([1]; citrate)	Solubility ([1]; listed as potassium hydroxy citrate)	stable under normal storage conditions ([2]; extrapolated from 90 day stress results)	stable under stress conditions ([2]; higher temperature and higher humidity, solid state and 5% in water) [days]	rate of gluconeogenesis from lactate or alanine [3]	less weight gained than the controls ([4]; 80 day study period) [%]	net reduction in food consumption ([4]; 80 day study period) [%]	food consumption suppressed ([4]; HCA 1% or more of the diet) [%]	brain uptake [5]	pKi (citrate lyase; competitive inhibition, read-out: Ki, competitive inhibitor of citrate lyase)	affinity of the enzyme for HCA versus affinity for citric acid (citrate lyase; relative to citric acid)	stability of the form [6]	inhibiting the citrate lyase (citrate lyase; lactone form)
potassium hydroxy citrate [CITRIN®-K]	Soluble in water, acids and aqueous; also recorded: alcohols. Insoluble in solvents like	water soluble	about 5 years	≥ 90									
O=C(O)CC(O)(C(=O)O)C(O)C(=O)O (centres unmarked) [HCA, hydroxycitric acid]					approximately doubled	78	4	≥ 10	negligible	6.82	over a hundred times greater	not stable	
O=C1C[C@@](O)(C(=O)O)[C@@H](C(=O)O)O1 [HCA in lactone form, hydroxy citric acid lactone]												stable	inactive, or less active
